In patent US8536354B2, “Steroidal ligands and their use in gene switch modulation” (Intrexon Corporation, priority 2008, dated 2013):
In brackets after ≈: the same amount, converted by molar mass. Several values for one entry are separate records, joined by “and”; a condition that tells them apart may be missing. Equal entries are not always repeated. Where two headings read alike, the source gives them in different places.

What was measured:
[1] = system: D. melanogaster BII cell line (expresses the ecdysteroid receptor complex EcR-USP); test: Drosophila melanogaster BII cell line bioassay (turbidometric; agonist and antagonist versions); settings: Drosophila melanogaster, read-out: EC50 (M), BII bioassay results
[2] = Caco II permeability assay; settings: human, Caco-2, pH 7.4
[3] = molecular target: T1, wild-type Choristoneura fumiferana EcR (CfEcR-DEF) (Choristoneura fumiferana, UniProt O77255); test: Two-hybrid gene switch assay, wild-type CfEcR-DEF (GAL4-EcR / VP16-RXR-USP chimera, luciferase) in NIH3T3 cells
T1 sequence (O77255 219-541): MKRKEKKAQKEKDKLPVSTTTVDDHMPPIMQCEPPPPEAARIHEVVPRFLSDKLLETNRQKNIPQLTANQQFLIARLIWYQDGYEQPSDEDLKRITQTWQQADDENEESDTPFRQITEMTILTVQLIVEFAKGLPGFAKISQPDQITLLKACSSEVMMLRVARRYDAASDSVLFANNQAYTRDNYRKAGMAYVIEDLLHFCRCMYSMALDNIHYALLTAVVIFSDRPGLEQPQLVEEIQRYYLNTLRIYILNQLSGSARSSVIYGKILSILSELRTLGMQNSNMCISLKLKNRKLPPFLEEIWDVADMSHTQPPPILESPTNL
T1 sequence (P28702 299-449 partner): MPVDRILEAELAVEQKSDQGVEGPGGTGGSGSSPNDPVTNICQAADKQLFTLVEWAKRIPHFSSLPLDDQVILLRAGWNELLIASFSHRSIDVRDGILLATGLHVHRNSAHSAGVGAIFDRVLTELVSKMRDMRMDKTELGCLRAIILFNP

physchem = settings: 25 °C, water, thermodynamic from solid
Protocol: (§1) Each shake flask was agitated for 60 minutes at room temperature, then allowed to stand for 1 hour at room temperature. […] Absorbance was compared to that of a reference standard at the same absorbance maximum for a 1-2% solution of the same steroid in CH3OH, allowing for up to 10 nM maxima shift due to solvent effect.

[4] = in human; cited from earlier work
[5] = Plasma protein binding assay (dialysis); type: in vitro ADME; settings: both sexes; human plasma vs PBS pH 7.4, ca. 24 hours at 37° C.
[6] = Log D measurement (shake flask, pH 7.4 buffer / octanol); type: physicochemical; settings: octanol/pH 7.4 buffer (shake flask), pH 7.4 buffer / water-saturated octanol, read-out: Experimental logD
Protocol: as §1

[7] = molecular target: T2, wild-type Drosophila melanogaster EcR (DmEcR-DEF) (Drosophila melanogaster, UniProt P34021); test: Two-hybrid gene switch assay, DmEcR-DEF in NIH3T3 cells; settings: EC50, DmEcR gene switch, NIH3T3, Example One
T2 sequence (P34021 342-878 limits assumed): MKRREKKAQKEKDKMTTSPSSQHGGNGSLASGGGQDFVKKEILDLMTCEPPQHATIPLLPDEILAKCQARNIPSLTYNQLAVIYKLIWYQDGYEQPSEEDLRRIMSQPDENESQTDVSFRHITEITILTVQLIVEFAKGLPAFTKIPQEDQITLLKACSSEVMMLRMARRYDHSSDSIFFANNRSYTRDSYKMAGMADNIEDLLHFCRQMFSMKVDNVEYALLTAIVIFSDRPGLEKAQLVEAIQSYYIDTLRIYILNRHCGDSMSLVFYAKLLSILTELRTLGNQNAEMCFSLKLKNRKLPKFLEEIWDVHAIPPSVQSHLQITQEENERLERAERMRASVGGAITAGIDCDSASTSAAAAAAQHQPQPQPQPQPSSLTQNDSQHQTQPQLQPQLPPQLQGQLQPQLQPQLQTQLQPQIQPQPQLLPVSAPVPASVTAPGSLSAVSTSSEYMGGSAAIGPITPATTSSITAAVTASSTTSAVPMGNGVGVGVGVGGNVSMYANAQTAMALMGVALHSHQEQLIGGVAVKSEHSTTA

[8] = system: EcRs (lepidopteran and non-lepidopteran); test: Two-hybrid gene switch assays, statements across the set of ten EcRs in NIH3T3 cells
VgEcR/RXR = VgEcR/RXR (Drosophila melanogaster, UniProt P34021, E282G/G283S/G286V)
[9] = system: Nephotettix cincticeps EcR (NcEcR-DEF); test: Two-hybrid gene switch assay, NcEcR-DEF in NIH3T3 cells; settings: Example Two
[10] = Water solubility measurement (saturated solutions, 25° C., UV absorbance); settings: 25 °C, thermodynamic from solid
Protocol: as §1

[11] = molecular target: T3, wild-type Aedes aegypti EcR (AaEcR-DEF) (Aedes aegypti, UniProt P49880); test: Two-hybrid gene switch assay, AaEcR-DEF in NIH3T3 cells
T3 sequence (P49880 405-776 limits assumed): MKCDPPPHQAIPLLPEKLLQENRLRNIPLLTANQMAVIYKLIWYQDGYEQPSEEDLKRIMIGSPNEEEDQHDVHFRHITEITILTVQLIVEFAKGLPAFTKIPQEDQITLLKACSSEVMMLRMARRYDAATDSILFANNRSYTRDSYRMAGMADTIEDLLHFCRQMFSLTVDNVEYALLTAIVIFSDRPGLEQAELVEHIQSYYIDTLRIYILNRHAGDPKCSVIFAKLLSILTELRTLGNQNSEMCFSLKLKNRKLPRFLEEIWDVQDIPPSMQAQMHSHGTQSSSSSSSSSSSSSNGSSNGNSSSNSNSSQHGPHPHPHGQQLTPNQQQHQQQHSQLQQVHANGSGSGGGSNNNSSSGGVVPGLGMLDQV

Bombyx mori EcR (BmEcR) = molecular target: T4, Bombyx mori EcR (BmEcR) (Bombyx mori, UniProt P49881); test: Two-hybrid gene switch assay, BmEcR in NIH3T3 cells
T4 sequence (P49881 352-589 limits assumed): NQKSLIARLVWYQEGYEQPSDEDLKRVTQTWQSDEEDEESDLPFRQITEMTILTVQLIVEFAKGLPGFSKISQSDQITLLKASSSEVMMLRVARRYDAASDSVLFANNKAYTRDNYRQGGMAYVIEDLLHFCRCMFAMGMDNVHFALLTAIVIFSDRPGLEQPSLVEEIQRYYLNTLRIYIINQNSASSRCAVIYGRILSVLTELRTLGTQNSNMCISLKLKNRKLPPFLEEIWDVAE

VgEcR/RXR, sequence (P34021 whole entry E282G/G283S/G286V): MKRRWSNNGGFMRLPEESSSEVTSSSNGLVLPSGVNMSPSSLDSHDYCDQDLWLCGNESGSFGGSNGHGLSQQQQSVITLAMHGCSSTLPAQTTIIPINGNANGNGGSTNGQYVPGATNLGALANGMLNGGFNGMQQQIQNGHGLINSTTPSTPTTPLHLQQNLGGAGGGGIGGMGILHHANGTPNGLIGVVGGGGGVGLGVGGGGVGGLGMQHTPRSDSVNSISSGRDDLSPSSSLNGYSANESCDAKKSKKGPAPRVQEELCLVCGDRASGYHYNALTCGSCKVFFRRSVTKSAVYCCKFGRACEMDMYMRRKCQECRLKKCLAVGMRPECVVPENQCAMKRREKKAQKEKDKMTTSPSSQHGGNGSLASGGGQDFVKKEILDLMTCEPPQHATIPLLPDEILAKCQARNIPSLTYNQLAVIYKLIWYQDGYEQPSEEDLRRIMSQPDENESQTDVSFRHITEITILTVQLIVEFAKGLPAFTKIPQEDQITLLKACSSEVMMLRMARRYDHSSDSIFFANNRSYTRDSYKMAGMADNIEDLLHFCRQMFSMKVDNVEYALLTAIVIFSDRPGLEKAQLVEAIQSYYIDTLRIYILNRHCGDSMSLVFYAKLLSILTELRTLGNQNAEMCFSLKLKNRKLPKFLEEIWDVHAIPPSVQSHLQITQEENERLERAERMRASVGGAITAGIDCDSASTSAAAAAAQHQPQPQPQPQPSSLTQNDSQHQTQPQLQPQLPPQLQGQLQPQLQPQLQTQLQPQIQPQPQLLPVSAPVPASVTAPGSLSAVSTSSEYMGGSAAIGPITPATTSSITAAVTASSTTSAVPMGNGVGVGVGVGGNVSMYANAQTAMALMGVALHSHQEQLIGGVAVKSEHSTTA
VgEcR/RXR, sequence (P19793 whole entry, further chain): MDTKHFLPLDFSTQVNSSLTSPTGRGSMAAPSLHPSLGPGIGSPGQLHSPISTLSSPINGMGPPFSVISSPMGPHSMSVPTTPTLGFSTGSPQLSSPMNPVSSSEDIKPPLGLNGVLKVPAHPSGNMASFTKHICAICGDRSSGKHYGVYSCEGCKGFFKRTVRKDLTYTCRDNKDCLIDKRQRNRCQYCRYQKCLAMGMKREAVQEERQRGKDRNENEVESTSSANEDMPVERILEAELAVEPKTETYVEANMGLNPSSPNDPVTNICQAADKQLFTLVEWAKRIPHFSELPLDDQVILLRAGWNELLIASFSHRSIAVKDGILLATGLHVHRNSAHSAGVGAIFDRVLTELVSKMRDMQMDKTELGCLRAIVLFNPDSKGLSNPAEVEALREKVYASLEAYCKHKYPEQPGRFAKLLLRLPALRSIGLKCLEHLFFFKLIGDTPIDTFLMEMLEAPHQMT

CC(C)(O)CCC(O)C(C)(O)C1CCC2(O)C3=CC(=O)C4CC(O)C(O)CC4(C)C3CCC12C (centres unmarked) [20E, 20-hydroxyecdysone]
EC50 [1]: 7.6e-09 M | Papp A→B at 120 min [2]: 0.11 ×10⁻⁶ cm/s | Papp B→A at 120 min [2]: 0.39 ×10⁻⁶ cm/s | efflux ratio at 120 min [2]: 3.5 | EC50 [3]: > 33000 nM | activity in wt-CfEcR assay ([3]; Example One): essentially inactive | response toward CfEcR ([3]; Example Two): virtually no response | solubility (physchem): 6700 µg/mL (≈ 13.9 mM) | estimated half-life [4]: 9 h | fraction unbound [5]: 0.908 | logD [6]: 0.01

CC(C)CC[C@@H](O)[C@](C)(O)[C@H]1CC[C@@]2(O)C3=CC(=O)[C@@H]4C[C@@H](O)[C@@H](O)C[C@]4(C)[C@H]3CC[C@]12C [PoA, ponasterone A]
EC50 [1]: 2.6e-10 M | EC50 [7]: ~66 nM | Papp A→B at 120 min [2]: 2.26 ×10⁻⁶ cm/s | Papp B→A at 120 min [2]: 13.9 ×10⁻⁶ cm/s | efflux ratio at 120 min [2]: 6.2 | EC50 [3]: 190 nM | RMFI (relative maximum fold induction, relative to diacylhydrazine 30) ([3]; wt-CfEcR gene switch, NIH3T3, Example One): ~0.18 and ~0.2 | activity across the tested set of EcRs ([8]; FIGS. 13 and 14): active | potency ([8]; all EcRs tested): submicromolar potency | EC50 ([8]; read-out: potency (EC50), Nc, Aa, and Ama EcRs): 0.3 to 2 nM | EC50 (VgEcR/RXR; EC50, VgEcR/RXR switch in 3T3 cells): 641 nM | EC50 (VgEcR/RXR; EC50, VgEcR/RXR system): 641 nM | RMFI (VgEcR/RXR; VgEcR/RXR system): 1.5 | EC50 [9]: 0.3 nM | RMFI [9]: 1 | solubility [10]: 180 µg/mL (≈ 0.387 mM) | EC50 ([11]; EC50, AaEcR gene switch, NIH3T3, Example One): 1.1 nM | potency as activator of AaEcR ([11]; Example Two): single digit nM | fold induction at 1 µM ([11]; NIH3T3, read-out: FI (fold induction)): 166 | RLUs (absolute expression of the reporter gene) ([11]; [AaEcR]): ~1046 | EC50 (Bombyx mori EcR (BmEcR)): 110 nM | RMFI (Bombyx mori EcR (BmEcR); BmEcR, Example Two): 0.98 | fraction unbound [5]: 0.426 | logD [6]: 1.95
